Measured values as given in PMC11844072, “Novel 5,6-dichlorobenzimidazole derivatives as dual BRAFWT and BRAFV600E inhibitors: design, synthesis, anti-cancer activity and molecular dynamics simulations” (BMC Chemistry, 2025).

Assays:
Test in all cases: NCI 60 single concentration growth inhibition
Format in all cases: cell-based, human
HS 578T = conditions: Homo sapiens, Breast cancer, read-out: GI%
How it was run: (§1)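 Suspension cells such as leukaemia lines are fixed with 80% TCA added to settled cells, to 16% final, while other lines are fixed at 10% TCA. Both are then SRB-stained after 48 h of drug exposure at 37 °C.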

SR = conditions: Homo sapiens, Leukemia, read-out: GI%
How it was run: (§2)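 Cells are plated and left 24 h, and a time-zero plate is fixed at drug addition. Compound is then added for 48 h, the cells are fixed in cold TCA and stained with 0.4% SRB, and bound dye is solubilised in 10 mM Tris for reading at 515 nm.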

HCT-116 = conditions: Homo sapiens, HCT-116, Colon cancer, read-out: GI%
How it was run: as §1

SK-MEL-5 = conditions: Homo sapiens, SK-MEL-5, Melanoma, read-out: GI%
How it was run: as §1

KM12 = conditions: Homo sapiens, KM12, Colon cancer, read-out: GI%
How it was run: as §1

RXF 393 = conditions: Homo sapiens, RXF 393, Renal cancer, read-out: GI%
How it was run: as §1

MDA-MB-435 = conditions: Homo sapiens, MDA-MB-435, Melanoma, read-out: GI%
How it was run: as §1

T-47D = conditions: Homo sapiens, T47D, Breast cancer, read-out: GI%
How it was run: as §1

SK-MEL-28 = conditions: Homo sapiens, SK-MEL-28, Melanoma, read-out: GI%
How it was run: as §1

SK-MEL-2 = conditions: Homo sapiens, SK-MEL-2, Melanoma, read-out: GI%
How it was run: as §1

SF-539 = conditions: Homo sapiens, SF-539, CNS cancer, read-out: GI%
How it was run: as §1

OVCAR-5 = conditions: Homo sapiens, OVCAR-5, Ovarian cancer, read-out: GI%
How it was run: as §1

MOLT-4 = conditions: Homo sapiens, MOLT-4, Leukemia, read-out: GI%
How it was run: as §2

786-0 = conditions: Homo sapiens, 786-0, Renal cancer, read-out: GI%
How it was run: as §1

NCI-H226 = conditions: Homo sapiens, NCI-H226, Non-small cell lung cancer, read-out: GI%
How it was run: as §1

MCF7 = conditions: Homo sapiens, MCF7, Breast cancer, read-out: GI%
How it was run: as §1

OVCAR-8 = conditions: Homo sapiens, OVCAR-8, Ovarian cancer, read-out: GI%
How it was run: as §1

SF-268 = conditions: Homo sapiens, SF-268, CNS cancer, read-out: GI%
How it was run: as §1

CCRF-CEM = conditions: Homo sapiens, Leukemia, read-out: GI%
How it was run: as §1

MDA-MB-231/ATCC = conditions: Homo sapiens, Breast cancer, read-out: GI%
How it was run: as §1

A549/ATCC = conditions: Homo sapiens, Non-small cell lung cancer, read-out: GI%
How it was run: as §1

M14 = conditions: Homo sapiens, M14, Melanoma, read-out: GI%
How it was run: as §1

Row | SMILES | inhibition at 10 µM (HS 578T) | inhibition at 10 µM (SR) | inhibition at 10 µM (HCT-116) | inhibition at 10 µM (SK-MEL-5) | inhibition at 10 µM (KM12) | inhibition at 10 µM (RXF 393) | inhibition at 10 µM (MDA-MB-435) | inhibition at 10 µM (T-47D) | inhibition at 10 µM (SK-MEL-28) | inhibition at 10 µM (SK-MEL-2) | inhibition at 10 µM (SF-539) | inhibition at 10 µM (OVCAR-5) | inhibition at 10 µM (MOLT-4) | inhibition at 10 µM (786-0) | inhibition at 10 µM (NCI-H226) | inhibition at 10 µM (MCF7) | inhibition at 10 µM (OVCAR-8) | inhibition at 10 µM (SF-268) | inhibition at 10 µM (CCRF-CEM) | inhibition at 10 µM (MDA-MB-231/ATCC) | further results
1 | COc1ccc(-c2nc3cc(Cl)c(Cl)cc3n2CC(=O)NN=Cc2ccc(O)cc2)cc1 [Compound 10b, 2-(5,6-Dichloro-2-(4-methoxyphenyl)-1H-benzo[d]imidazol-1-yl)-N'-(4-hydroxybenzylidene)acetohydrazide] | 37.8% | 64.7% | 45.1% | 52.1% | 26.3% | 41.2% | 39.1% | 56.4% | 26.4% | 32.3% | 32.5% | < 5% | 77.2% | 34.8% | 35.5% | 74.2% | 28% | 52.5% | 25.4% | 21.2% | inhibition at 10 µM (A549/ATCC): 57.2%; inhibition at 10 µM (M14): 39.1%
2 | COc1ccc(-c2nc3cc(Cl)c(Cl)cc3n2CC(=O)NN=Cc2cccc(OC)c2)cc1 [Compound 10c, 2-(5,6-Dichloro-2-(4-methoxyphenyl)-1H-benzo[d]imidazol-1-yl)-N'-(3-methoxybenzylidene)acetohydrazide] | 28.9% | 48.4% | 37.9% | 44.5% | 17.6% | 23.1% | 33% | 45.8% | 20.5% | 19.4% | 24.4% | < 5% | 70.3% | 19.2% | 17.1% | 56.6% | 13.5% | 48.3% | 41.8% | 15.1% | inhibition at 10 µM (A549/ATCC): 36.1%; inhibition at 10 µM (M14): 34.1%
3 | COc1ccc(C=NNC(=O)Cn2c(-c3ccc(OC)cc3)nc3cc(Cl)c(Cl)cc32)cc1 [Compound 10d, 2-(5,6-Dichloro-2-(4-methoxyphenyl)-1H-benzo[d]imidazol-1-yl)-N'-(4-methoxybenzylidene)acetohydrazide] | 34.6% | 35.1% | 61.3% | 78.9% | 40.8% | 38.7% | 41.4% | 67.2% | 33.5% | 30.9% | 34.2% | 21.5% | 68.9% | 29.1% | 33.9% | 81.5% | 22.4% | 48.6% | 40.2% | 27.4% | inhibition at 10 µM (A549/ATCC): 59.4%; inhibition at 10 µM (M14): 38.2%
4 | COc1ccc(-c2nc3cc(Cl)c(Cl)cc3n2CC(=O)NN=Cc2cccc(OCC(=O)O)c2)cc1 [Compound 10e, 2-(3-((2-(2-(5,6-Dichloro-2-(4-methoxyphenyl)-1H-benzo[d]imidazol-1-yl)acetyl)hydrazono)methyl)phenoxy)acetic acid] | 7.11% | < 5% | < 5% | < 5% | < 5% | < 5% | < 5% | < 5% | < 5% | < 5% | < 5% | < 5% | < 5% | < 5% | < 5% | 13.6% | < 5% | < 5% | < 5% | < 5% | inhibition at 10 µM (A549/ATCC): < 5%; inhibition at 10 µM (M14): 6.12%
5 | COc1ccc(-c2nc3cc(Cl)c(Cl)cc3n2CC(=O)NN=Cc2ccc(OCC(=O)O)cc2)cc1 [Compound 10f, 2-(4-((2-(2-(5,6-Dichloro-2-(4-methoxyphenyl)-1H-benzo[d]imidazol-1-yl)acetyl)hydrazono)methyl)phenoxy)acetic acid] | < 5% | < 5% | < 5% | < 5% | < 5% | < 5% | < 5% | < 5% | < 5% | < 5% | 10.8% | < 5% | < 5% | < 5% | < 5% | 18.9% | < 5% | < 5% | < 5% | < 5% | inhibition at 10 µM (A549/ATCC): < 5%; inhibition at 10 µM (M14): < 5%
6 | COC(=O)COc1cccc(C=NNC(=O)Cn2c(-c3ccc(OC)cc3)nc3cc(Cl)c(Cl)cc32)c1 [Compound 10g, Methyl-2-(3-((2-(2-(5,6-dichloro-2-(4-methoxyphenyl)-1H-benzo[d]imidazol-1-yl)acetyl)hydrazono)methyl)phenoxy)acetate] | 13.9% | 78.3% | 10.6% | 8.95% | < 5% | 32.9% | 11.9% | 55.9% | < 5% | < 5% | 26.5% | < 5% | 30.4% | 10% | 8% | 31.9% | 84.2% | < 5% | 20.9% | 21.6% | inhibition at 10 µM (A549/ATCC): < 5%; inhibition at 10 µM (M14): < 5%
7 | COC(=O)COc1ccc(C=NNC(=O)Cn2c(-c3ccc(OC)cc3)nc3cc(Cl)c(Cl)cc32)cc1 [Compound 10h, Methyl-2-(4-((2-(2-(5,6-dichloro-2-(4-methoxyphenyl)-1H-benzo[d]imidazol-1-yl)acetyl)hydrazono)methyl)phenoxy)acetate] | 72.2% | 81.1% | 10.8% | < 5% | < 5% | 85.7% | 18.3% | 107% | 31.7% | 26.4% | 39.2% | < 5% | 53.2% | 112% | < 5% | 67.5% | 148% | < 5% | 28.1% | 94.5% | inhibition at 10 µM (A549/ATCC): < 5%; inhibition at 10 µM (M14): 10.8%
